# From publication PMC4861429, “Molecular Insights into Toluene Sensing in the TodS/TodT Signal Transduction System” (The Journal of Biological Chemistry, 2016)
# Key:
# Test in all cases: ITC
# Format in all cases: binding
# [1] = target: T1, PAS1(23–168); dimerization helix-containing PAS1 of TodS (Pseudomonas putida, UniProt A5W4E3)
# T1 construct: PAS1 sensor domain with dimerization helix, residues 23-168; N-terminal His6 tag kept; E. coli C41(DE3); dimer in solution
# [2] = target: T2, PAS1(23–168); dimerization helix-containing PAS1 of TodS (Pseudomonas putida, UniProt A5W4E3, I114V)
# T2 construct: PAS1 sensor domain with dimerization helix, residues 23-168; N-terminal His6 tag kept; E. coli C41(DE3); dimer in solution
# T2 sequence (A5W4E3 23-168 I114V): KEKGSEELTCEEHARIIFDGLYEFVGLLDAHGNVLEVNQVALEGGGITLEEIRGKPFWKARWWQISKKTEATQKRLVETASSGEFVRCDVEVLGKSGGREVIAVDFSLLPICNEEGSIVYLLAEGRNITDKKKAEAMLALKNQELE
# [3] = target: T3, PAS1(23–168); dimerization helix-containing PAS1 of TodS (Pseudomonas putida, UniProt A5W4E3, V59A)
# T3 construct: PAS1 sensor domain with dimerization helix, residues 23-168; N-terminal His6 tag kept; E. coli C41(DE3); dimer in solution
# T3 sequence (A5W4E3 23-168 V59A): as the sequence (A5W4E3 23-168 I114V) above, with V37A, V92I counted along it
# [4] = target: T4, PAS1(23–168); dimerization helix-containing PAS1 of TodS (Pseudomonas putida, UniProt A5W4E3, F46A)
# T4 construct: PAS1 sensor domain with dimerization helix, residues 23-168; N-terminal His6 tag kept; E. coli C41(DE3); dimer in solution
# T4 sequence (A5W4E3 23-168 F46A): as the sequence (A5W4E3 23-168 I114V) above, with F24A, V92I counted along it
# [5] = target: T5, PAS1(23–168); dimerization helix-containing PAS1 of TodS (Pseudomonas putida, UniProt A5W4E3, W85H)
# T5 construct: PAS1 sensor domain with dimerization helix, residues 23-168; N-terminal His6 tag kept; E. coli C41(DE3); dimer in solution
# T5 sequence (A5W4E3 23-168 W85H): as the sequence (A5W4E3 23-168 I114V) above, with W63H, V92I counted along it
# [6] = target: T6, PAS1(23–168); dimerization helix-containing PAS1 of TodS (Pseudomonas putida, UniProt A5W4E3, F79Y)
# T6 construct: PAS1 sensor domain with dimerization helix, residues 23-168; N-terminal His6 tag kept; E. coli C41(DE3); dimer in solution
# T6 sequence (A5W4E3 23-168 F79Y): as the sequence (A5W4E3 23-168 I114V) above, with F57Y, V92I counted along it
# [7] = target: T7, PAS1(23–168); dimerization helix-containing PAS1 of TodS (Pseudomonas putida, UniProt A5W4E3, E146A)
# T7 construct: PAS1 sensor domain with dimerization helix, residues 23-168; N-terminal His6 tag kept; E. coli C41(DE3); dimer in solution
# T7 sequence (A5W4E3 23-168, stated change not applied): as the sequence (A5W4E3 23-168 I114V) above, with V92I counted along it
# T1 sequence (A5W4E3 23-168): as the sequence (A5W4E3 23-168 I114V) above, with V92I counted along it
smiles,measurement,setting,value
Cc1cccc(C)c1 [m-xylene],Kd,[1],9.5 µM
same,Kd,[2],6.1 µM
Cc1ccccc1 [toluene],Kd,[1],8.5 µM
same,Kd,[2],8.4 µM
same,Kd,[3],14.6 µM
same,Kd,[4],95.2 µM
same,Kd,[5],10.6 µM
same,Kd,[6],71.4 µM
same,Kd,[7],9.6 µM
